Patent US7988776B2, “Coloring composition, thermal transfer recording ink sheet, thermal transfer recording method, color toner, inkjet ink, color filter, and azo dye” (Fujifilm Corporation, priority 2007, dated 2011)

Columns and labels:
Type in all cases: physicochemical
[1] = Dye solubility in ink sheet construction; parameters: key: A (easily soluble); B (soluble); C (difficult to dissolve, but soluble); conditions: dye-donating layer-forming coating composition, methyl ethyl ketone/toluene (1/1)
Source text: A polyester film (Lumirror, trade name by Toray) having a thickness of 6.0 μm and processed for heat-resistant lubrication with a thermosetting acrylic resin (thickness 1 μm) on its back was used as a support.
The dye solubility was ranked in three, A (easily soluble), B (soluble) r C (difficult to dissolve, but soluble).

[2] = Absorption spectrometry in ethyl acetate solution (maximum absorption wavelength); conditions: concentration 1×10^−6 mol/L, optical path length 10 mm
Procedure: The thus-obtained compounds (1), (2), (5) and (10) were analyzed absorption spectrometry in an ethyl acetate solution (concentration: 1×10^−6 mol/L, optical path length: 10 mm).

[3] = Light fastness of recorded images under Xe light; conditions: retention of status A reflection density 1.0 after Xe light (17000 lux) for 7 days
Procedure: Next, the recorded samples were exposed to an Xe light (17000 lux) for 7 days, and tested for the light stability (light fastness) of the recorded images. After the exposure, the status A reflection density of the part of each sample having an original status A reflection density of 1.0 before the exposure was measured, and the retention (by percentage) to the reflection density of 1.0 after exposure to that before exposure indicates the image stability. With the retention percentage, the samples were ranked in three, A (from 80% to less than 100%), B (from 60% to less than 80%), C (less than 60%).

C=CCN(CC=C)c1ccc(/N=N/c2c(C#N)c(C(C)(C)C)nn2S(C)(=O)=O)c(NC(C)=O)c1 [(5)]
Solubility [1]: A | Maximum Absorption Wavelength [2]: 539 nm | Light Fastness [3]: A (A (from 80% to less than 100%))
